pIC50: −log10 of the molar value.
Key:
[1] = biological target: CDK2/CycE (Homo sapiens (Human), UniProt P24941); assay: CDK2/CycE high ATP kinase assay (TR-FRET, 2 mM ATP); format: biochemical; settings: Method 2b
Description: 2b. CDK2/CycE High ATP Kinase Assay
CDK2/CycE-inhibitory activity of compounds of the present invention at 2 mM adenosine-tri-phosphate (ATP) was quantified employing the CDK2/CycE TR-FRET (TR-FRET=Time Resolved Fluorescence Energy Transfer) assay as described in the following paragraphs.
Recombinant fusion proteins of GST and human CDK2 and of GST and human CycE, expressed in insect cells (Sf9) and purified by Glutathion-Sepharose affinity chromatography, were purchase from ProQinase GmbH (Freiburg, Germany). As substrate for the kinase reaction biotinylated peptide biotin-Ttds-YISPLKSPYKISEG (C-terminus in amid form) was used which can be purchased e.g. form the company JERINI peptide technologies (Berlin, Germany).
For the assay 50 nl of a 100 fold concentrated solution of the test compound in DMSO was pipetted into a black low volume 384 well microtiter plate (Greiner Bio-One, Frickenhausen, Germany), 2 μl of a solution of CDK2/CycE in aqueous assay buffer [50 mM Tris/HCl pH 8.0, 10 mM MgCl2, 1.0 mM dithiothreitol, 0.1 mM sodium ortho-vanadate, 0.01% (v/v) Nonidet-P40 (Sigma)] were added and the mixture was incubated for 15 min at 22° C. to allow pre-binding of the test compounds to the enzyme before the start of the kinase reaction. Then the kinase reaction was started by the addition of 3 μl of a solution ATP (3.33 mM=>final conc. in the 5 μl assay volume is 2 mM) and substrate (1.25 μM=>final conc. in the 5 μl assay volume is 0.75 μM) in assay buffer and the resulting mixture was incubated for a reaction time of 25 min at 22° C. The concentration of CDK2/CycE was adjusted depending of the activity of the enzyme lot and was chosen appropriate to have the assay in the linear range, typical concentrations were in the range of 15 ng/ml. The reaction was stopped by the addition of 5 μl of a solution of TR-FRET detection reagents (0.2 μM streptavidine-XL665 [Cisbio Bioassays, Codolet, France] and 1 nM anti-RB(pSer807/pSer811)-antibody from BD Pharmingen [#558389] and 1.2 nM LANCE EU-W1024 labeled anti-mouse IgG antibody [Perkin-Elmer, product no. AD0077, as an alternative a Terbium-cryptate-labeled anti-mouse IgG antibody from Cisbio Bioassays can be used]) in an aqueous EDTA-solution (100 mM EDTA, 0.2% (w/v) bovine serum albumin in 100 mM HEPES/NaOH pH 7.0).
The resulting mixture was incubated 1 h at 22° C. to allow the formation of complex between the phosphorylated biotinylated peptide and the detection reagents. Subsequently the amount of phosphorylated substrate was evaluated by measurement of the resonance energy transfer from the Eu-chelate to the streptavidine-XL. Therefore, the fluorescence emissions at 620 nm and 665 nm after excitation at 350 nm were measured in a TR-FRET reader, e.g. a Rubystar (BMG Labtechnologies, Offenburg, Germany) or a Viewlux (Perkin-Elmer). The ratio of the emissions at 665 nm and at […] was taken as the measure for the amount of phosphorylated substrate. The data were normalised (enzyme reaction without inhibitor=0% inhibition, all other assay components but no enzyme=100% inhibition).

[2] = tested on: HeLa, human cervical tumour cells; assay: Proliferation assay, HeLa (crystal violet); format: cell-based; settings: 96 h, 4 days, read-out: Inhibition of HeLa cell proliferation IC50
Description: Cultivated tumour cells (HeLa, human cervical tumour cells, ATCC CCL-2; NCI-H460, human non-small cell lung carcinoma cells, ATCC HTB-177; A2780, human ovarian carcinoma cells, ECACC #93112519; DU 145, hormone-independent human prostate carcinoma cells, ATCC HTB-81; HeLa-MaTu-ADR, multidrug-resistant human cervical carcinoma cells, EPO-GmbH Berlin; Caco-2, human colorectal carcinoma cells, ATCC HTB-37; B16F10, mouse melanoma cells, ATCC CRL-6475) were plated at a density of 5,000 cells/well (DU145, HeLa-MaTu-ADR), 3,000 cells/well (NCI-H460, HeLa), 2,500 cells/well (A2780), 1,500 cells/well (Caco-2), or 1,000 cells/well (B16F10) in a 96-well multititer plate in 200 μL of their respective growth medium supplemented 10% fetal calf serum. After 24 hours, the cells of one plate (zero-point plate) were stained with crystal violet (see below), while the medium of the other plates was replaced by fresh culture medium (200 μl), to which the test substances were added in various concentrations (0 μM, as well as in the range of 0.001-10 μM; the final concentration of the solvent dimethyl sulfoxide was 0.5%). The cells were incubated for 4 days in the presence of test substances. Cell proliferation was determined by staining the cells with crystal violet: the cells were fixed by adding 20 μl/measuring point of an 11% glutaric aldehyde solution for 15 minutes at room temperature. After three washing cycles of the fixed cells with water, the plates were dried at room temperature. The cells were stained by adding 100 μl/measuring point of a 0.1% crystal violet solution (pH 3.0). After three washing cycles of the stained cells with water, the plates were dried at room temperature. The dye was dissolved by adding 100 μl/measuring point of a 10% acetic acid solution. The extinction was determined by photometry at a wavelength of 595 nm. The change of cell number, in percent, was calculated by normalization of the measured values to the extinction values of the zero-point plate (=0%) and the extinction of the untreated (0 μm) cells (=100%). The IC50 values (inhibitory concentration at 50% of maximal effect) were determined by means of a 4 parameter fit.

pIC50 [1] | pIC50 [2] | Structure (SMILES)
6.20 | 7.43 | COc1cc(F)ccc1-c1cc(Nc2cc(CS(C)(=O)=O)cc(C)n2)ncc1F [Example 2, 5-Fluoro-4-(4-fluoro-2-methoxyphenyl)-N-{6-methyl-4-[(methylsulfonyl)methyl]pyridin-2-yl}pyridin-2-amine]
6.10 | 7.00 | COc1cc(F)ccc1-c1cc(Nc2cc(CS(C)(=O)=O)cc(F)n2)ncc1F [Example 3, 5-Fluoro-4-(4-fluoro-2-methoxyphenyl)-N-{6-fluoro-4-[(methylsulfonyl)methyl]pyridin-2-yl}pyridin-2-amine]

Further lines, the molecule ahead of its results:

Structure (SMILES) | pIC50 [1] | pIC50 [2]
COc1cc(F)ccc1-c1cc(Nc2cc(CS(C)(=O)=O)ccn2)ncc1F [Example 1, 5-Fluoro-4-(4-fluoro-2-methoxyphenyl)-N-{4-[(methylsulfonyl)methyl]pyridin-2-yl}pyridin-2-amine] | 5.66 | 7.08
COc1cc(F)ccc1-c1cc(Nc2cc(CS(C)(=O)=O)cc(C(F)(F)F)n2)ncc1F [Example 4, 5-Fluoro-4-(4-fluoro-2-methoxyphenyl)-N-{4-[(methylsulfonyl)methyl]-6-(trifluoromethyl)pyridin-2-yl}pyridin-2-amine] | 6.77 | 7.80
COc1cc(F)ccc1-c1cc(Nc2cc(CS(C)(=O)=O)cc(C(F)F)n2)ncc1F [Example 5, N-{6-(Difluoromethyl)-4-[(methylsulfonyl)methyl]pyridin-2-yl}-5-fluoro-4-(4-fluoro-2-methoxyphenyl)pyridin-2-amine] | 6.99 | > 7.52
